{
  "source": "paper PMC12066474",
  "about": "“Ex vivo quantification of intracellular pH in Drosophila Malpighian tubule reveals basolateral HCO3 ^−/oxalate exchange through a novel oxalate transporter “Neat”” (Frontiers in Physiology, 2025)",
  "molecular_target": "T1, Neat (CG5002) (Drosophila melanogaster, UniProt Q7K4I4)",
  "T1 construct": "coding region in pGEMHE, cRNA expressed in Xenopus laevis oocytes",
  "T1 sequence (Q7K4I4 1-595)": "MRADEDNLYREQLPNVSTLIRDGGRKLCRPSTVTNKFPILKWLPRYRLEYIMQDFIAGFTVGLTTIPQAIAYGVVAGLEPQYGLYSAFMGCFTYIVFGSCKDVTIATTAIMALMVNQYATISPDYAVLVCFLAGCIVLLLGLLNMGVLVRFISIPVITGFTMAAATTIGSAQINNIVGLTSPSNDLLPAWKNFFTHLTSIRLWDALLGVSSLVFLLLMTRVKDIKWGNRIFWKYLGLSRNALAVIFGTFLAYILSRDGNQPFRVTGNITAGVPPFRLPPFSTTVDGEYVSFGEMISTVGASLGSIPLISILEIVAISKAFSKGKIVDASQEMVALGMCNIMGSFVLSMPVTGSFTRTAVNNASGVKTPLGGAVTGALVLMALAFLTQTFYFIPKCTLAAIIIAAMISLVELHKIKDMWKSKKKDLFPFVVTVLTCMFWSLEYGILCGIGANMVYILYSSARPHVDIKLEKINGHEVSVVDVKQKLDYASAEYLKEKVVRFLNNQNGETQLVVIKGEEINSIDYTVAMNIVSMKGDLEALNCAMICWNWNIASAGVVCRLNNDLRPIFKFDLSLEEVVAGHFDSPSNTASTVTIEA",
  "assay_type": "cell-based",
  "conditions": "5% CO2/33 mM HCO3−, pH 7.5",
  "data": [
    {"smiles": "O=C(O)O", "note": "[HCO3 ^−]", "values": [
      {"measurement": "intracellular pH microelectrode in Xenopus oocytes", "result": "Neat demonstrated electroneutral HCO3 ^− influx in the presence of HCO3 ^−/CO2 buffered saline"}
    ]}
  ]
}
